Experimental data: patent US11299762B2, “Nanoscale motion detector” (Ecole Polytechnique Fédérale de Lausanne (EPFL), priority 2011, dated 2022)

Experiments:
[1] = test system: human Topoisomerase II; test: TopoII adsorbed on AFM cantilever, fluctuation recording (drug affinity detection); assay type: biochemical
Source text: This enzyme requires ATP to modify its 3D conformation and to act on DNA. TopoII is also the preferred target of numerous anticancerous drugs such as aclarubicin. This drug binds to TopoII, freezes its conformation and inhibits its action (15). In the first experiment, TopoII was adsorbed onto both sides of a cantilever. It was than introduced in the analysis chamber of an AFM and its laser beam was collimated on the apex of the cantilever. The reflection of the laser beam, sent to a split photo-detector, allowed detecting the fluctuations of the cantilever as depicted in FIG. 1 and, more in detail, FIG. 3,
The experiment consisted in injecting successively an ATP depleted buffer, an ATP enriched solution and an aclarubicin+ATP rich media in the analysis chamber and by recording the resulting fluctuations of the cantilever.
This experiment was performed using an APTES-coated AFM cantilever. The different buffers injected during experiment are: buffer (50 mM Tris-HCl (pH 8.0), 150 mM NaCl, 10 mM MgCl2, and 0.5 mM dithiothreitol), 0.02 mM ATP and 0.02 mM ATP plus 100 μM aclarubicin.
The media used in this experiment are: buffer (50 mM Tris-HCl (pH 8.0), 150 mM NaCl, 10 mM MgCl2 and 0.5 mM dithiothreitol.), 0.02 mM ATP, 0.2 mM ATP, 2 mM ATP and again buffer.

[2] = test system: Escherichia coli; test: Antibiotic sensitivity detection, bacteria adsorbed on cantilever; assay type: cell-based; settings: FIG. 8
Source text: Motile bacteria (Escherichia coli), resistant to kanamycin but sensitive to ampicillin, were adsorbed to both sides of a cantilever. The bacteria were successively exposed to both antibiotics to determine the impact on the bacterial motion/viability (see FIG. 7).
In these experiments the cantilever was introduced in the analysis chamber and exposed to a solution containing bacteria that eventually attached to its surface. The system was then exposed to: 1) nutriment depleted buffer, 2) nutriment solution (Lysogeny broth (LB)), 3) kanamycin-enriched LB solution 4) LB solution 5) ampicillins-enriched LB solution and, finally, 6) LB solution.
The experiment was performed using an APTES-coated AFM cantilever. The different phases of the experiment are depicted: PBS, bacteria in PBS, bacteria in LB, exposure to kanamycin, washing with LB, exposure to ampicillin, washing with LB.

[3] = test system: Staphylococcus aureus; test: Antibiotic sensitivity detection, non-motile bacteria on cantilever; assay type: cell-based; settings: exposure to ampicillin in LB; FIG. 10
Source text: Later on, similar experiments were repeated using non-motile bacteria (Staphylococcus aureus) susceptible to ampicillin. […] The results of the cantilever motion RMS are depicted in FIG. 10. In this experiment an APTES-coated AFM cantilever was used. The different phases of the experiment are depicted: PBS, bacteria in PBS, bacteria in LB and exposure to ampicillin.

[4] = test system: TopoII-supercoiled DNA complexes; test: TopoII-supercoiled DNA complexes on AFM cantilever, fluctuation recording; assay type: biochemical, human; settings: 0.02 mM ATP, compared to ATP free buffer or AMPPMP solution
Procedure: As mentioned previously, TopoII interacts with DNA to simplify its topology. To record this reaction with our method we deposited TopoII-supercoiled DNA complexes on both sides of an AFM cantilever, as depicted in FIG. 6.
The experiment was performed using an APTES-coated AFM cantilever. The different media injected during experiment are: buffer (50 mM Tris-HCl (pH 8.0), 150 mM NaCl, 10 mM MgCl2 and 0.5 mM dithiothreitol), 0.02 mM. AMPPNP (an ATP analogue) and 0.02 mM ATP. […] Panel B depicts the experimental set-up to follow TopoII-DNA interactions. a) DNA molecule, b) TopoII, c) AFM cantilever, d) laser beam. Panel C evidences the differences in terms of the variance.
Here again the cantilever covered with TopoII-supercoiled DNA complexes was inserted in the analysis chamber and exposed to several consecutive liquid environments: 1) ATP free solution, 2) buffer containing a non functional ATP substitute, referred to as AMPPMP 3) ATP enriched medium. AMPPMP is a non-hydrolysable ATP analogue which inhibits TopoII activity.

CC[C@@]1(O)C[C@H](O[C@H]2C[C@H](N(C)C)[C@H](O[C@H]3C[C@H](O)[C@H](O[C@H]4CCC(=O)[C@H](C)O4)[C@H](C)O3)[C@H](C)O2)c2c(cc3c(c2O)C(=O)c2c(O)cccc2C3=O)[C@H]1C(=O)OC [aclarubicin]
TopoII conformational state (cantilever fluctuation) ([1]; 0.02 mM ATP plus 100 μM aclarubicin, FIG. 4): again in equilibrium

CC1(C)S[C@@H]2[C@H](NC(=O)[C@H](N)c3ccccc3)C(=O)N2[C@H]1C(=O)O [ampicillin]
bacterial motion (cantilever fluctuations) ([2]; antibiotic-enriched LB solution, E. coli resistant to kanamycin, sensitive to ampicillin): dramatically decreased
bacterial motion after washing with LB solution ([2]; step 6, LB solution after ampicillin exposure): remained at the same value
internal movements of bacteria (cantilever motion) [3]: decreased dramatically

Nc1ncnc2c1ncn2[C@@H]1O[C@H](COP(=O)(O)OP(=O)(O)OP(=O)(O)O)[C@@H](O)[C@H]1O [ATP]
variance of the cantilever fluctuations ([1]; 0.02 mM ATP, compared to ATP depleted buffer or aclarubicin, FIG. 4): significantly higher
conformational changes induced on TopoII (cantilever fluctuation variance) ([1]; 0.02 mM, 0.2 mM, 2 mM ATP, FIG. 5): dependent on its concentration
cantilever fluctuation variance [4]: significant increase
